According to patent publication US9738634B2, “Heterocyclic amide compound and herbicide” (SYNGENTA PARTICIPATIONS AG, priority 2013, dated 2017):

Experiments:
Format in all cases: in vivo
Conditions in all cases: treatment dosage 320 g/ha
Indian mallow [1] = experiment: Test Example 4: weedkilling efficacy by foliar treatment; K: Indian mallow
In short: (§1)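 Seeds are spot-sown into sterilized diluvial soil and covered with about 1.5 cm of soil. After 14 days' greenhouse growth at 25 to 30° C, plants are sprayed on stems and leaves with diluted emulsion at the stated g/ha rate, then scored at 3 weeks.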

rapeseed [2] = experiment: Test Example 3: soil treatment, effect on crop; g: rapeseed
In short: (§2)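 Crop and weed responses were judged three weeks after a uniform surface spray of the water-diluted emulsion at the given g/ha rate. Seeds sat beneath about 1.5 cm of sterilized diluvial soil, and boxes stood in a greenhouse at 25 to 30° C.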

chickweed [3] = experiment: Test Example 3: weedkilling efficacy through soil treatment; N: chickweed
In short: as §2

soybean [4] = experiment: Test Example 4: foliar treatment, effect on crop; d: soybean
In short: as §1

soybean [5] = experiment: Test Example 3: soil treatment, effect on crop; d: soybean
In short: as §2

catchweed [6] = experiment: Test Example 3: weedkilling efficacy through soil treatment; O: catchweed
In short: as §2

wheat [7] = experiment: Test Example 4: foliar treatment, effect on crop; e: wheat
In short: as §1

barnyard grass [8] = experiment: Test Example 1: weedkilling efficacy, preemergent weed treatment in the submerged state; A: barnyard grass
In short: (§3)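 Pots of alluvial soil flooded 4 cm deep, sown with barnyard grass, bulrush and oval-leafed pondweed and transplanted with 2.5-leaf rice. Emulsified compound applied to the water surface on sowing day at stated g/ha; greenhouse 25–30 °C, effects assessed 3 weeks after treatment.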

crabgrass [9] = experiment: Test Example 4: weedkilling efficacy by foliar treatment; D: crabgrass
In short: as §1

crabgrass [10] = experiment: Test Example 3: weedkilling efficacy through soil treatment; D: crabgrass
In short: as §2

beet [11] = experiment: Test Example 4: foliar treatment, effect on crop; f: beet
In short: as §1

common wind-grass [12] = experiment: Test Example 3: weedkilling efficacy through soil treatment; J: common wind-grass
In short: as §2

redroot pigweed [13] = experiment: Test Example 4: weedkilling efficacy by foliar treatment; L: redroot pigweed
In short: as §1

redroot pigweed [14] = experiment: Test Example 3: weedkilling efficacy through soil treatment; L: redroot pigweed
In short: as §2

directly sown rice [15] = experiment: Test Example 4: foliar treatment, effect on crop; b: directly sown rice
In short: as §1

barnyard grass [16] = experiment: Test Example 3: weedkilling efficacy through soil treatment; F: barnyard grass
In short: as §2

Italian ryegrass [17] = experiment: Test Example 3: weedkilling efficacy through soil treatment; I: Italian ryegrass
In short: as §2

rapeseed [18] = experiment: Test Example 4: foliar treatment, effect on crop; g: rapeseed
In short: as §1

Indian mallow [19] = experiment: Test Example 3: weedkilling efficacy through soil treatment; K: Indian mallow
In short: as §2

bulrush [20] = experiment: Test Example 1: weedkilling efficacy, preemergent weed treatment in the submerged state; B: bulrush
In short: as §3

black-grass [21] = experiment: Test Example 3: weedkilling efficacy through soil treatment; H: black-grass
In short: as §2

transplanted rice = experiment: Test Example 1: preemergent weed treatment in the submerged state, effect on crop; a: transplanted rice
In short: as §3

catchweed [22] = experiment: Test Example 4: weedkilling efficacy by foliar treatment; O: catchweed
In short: as §1

beet [23] = experiment: Test Example 3: soil treatment, effect on crop; f: beet
In short: as §2

corn [24] = experiment: Test Example 4: foliar treatment, effect on crop; c: corn
In short: as §1

wild oat [25] = experiment: Test Example 3: weedkilling efficacy through soil treatment; G: wild oat
In short: as §2

corn [26] = experiment: Test Example 3: soil treatment, effect on crop; c: corn
In short: as §2

barnyard grass [27] = experiment: Test Example 4: weedkilling efficacy by foliar treatment; F: barnyard grass
In short: as §1

chickweed [28] = experiment: Test Example 4: weedkilling efficacy by foliar treatment; N: chickweed
In short: as §1

oval-leafed pondweed [29] = experiment: Test Example 1: weedkilling efficacy, preemergent weed treatment in the submerged state; C: oval-leafed pondweed
In short: as §3

wild oat [30] = experiment: Test Example 4: weedkilling efficacy by foliar treatment; G: wild oat
In short: as §1

birds-eye speedwell [31] = experiment: Test Example 4: weedkilling efficacy by foliar treatment; p: birds-eye speedwell
In short: as §1

oval-leafed pondweed [32] = experiment: Test Example 2: weedkilling efficacy, growth period weed treatment in the submerged state; C: oval-leafed pondweed
In short: (§4)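 Barnyard grass, bulrush and oval-leafed pondweed sown in alluvial soil under 4 cm flooding, greenhouse 25 to 30° C. At 1-2 leaf stage, water-diluted emulsion applied to the water surface at stated g/ha dosages; effects scored 3 weeks later.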

directly sown rice [33] = experiment: Test Example 3: soil treatment, effect on crop; b: directly sown rice
In short: as §2

green foxtail [34] = experiment: Test Example 3: weedkilling efficacy through soil treatment; E: green foxtail
In short: as §2

Italian ryegrass [35] = experiment: Test Example 4: weedkilling efficacy by foliar treatment; I: Italian ryegrass
In short: as §1

bulrush [36] = experiment: Test Example 2: weedkilling efficacy, growth period weed treatment in the submerged state; B: bulrush
In short: as §4

birds-eye speedwell [37] = experiment: Test Example 3: weedkilling efficacy through soil treatment; p: birds-eye speedwell
In short: as §2

fig-leafed goosefoot = experiment: Test Example 3: weedkilling efficacy through soil treatment; M: fig-leafed goosefoot
In short: as §2

wheat [38] = experiment: Test Example 3: soil treatment, effect on crop; e: wheat
In short: as §2

common wind-grass [39] = experiment: Test Example 4: weedkilling efficacy by foliar treatment; J: common wind-grass
In short: as §1

green foxtail [40] = experiment: Test Example 4: weedkilling efficacy by foliar treatment; E: green foxtail
In short: as §1

barnyard grass [41] = experiment: Test Example 2: weedkilling efficacy, growth period weed treatment in the submerged state; A: barnyard grass
In short: as §4

black-grass [42] = experiment: Test Example 4: weedkilling efficacy by foliar treatment; H: black-grass
In short: as §1

Compound: COc1cc(Cl)cc(NC(=O)C(C)(C)N2COC(C)=C(c3ccccc3)C2=O)n1 [B-2-46]
- K (Indian mallow) weedkilling efficacy grade (Indian mallow [1]): 3 (weed kill ratio 40% or more, less than 70%)
- g (rapeseed) effect on crop grade (rapeseed [2]): 4 (weed kill ratio 70% or more, less than 90%)
- N (chickweed) weedkilling efficacy grade (chickweed [3]): 4 (weed kill ratio 70% or more, less than 90%)
- d (soybean) effect on crop grade (soybean [4]): 0 (weed kill ratio 5% or less (practically no effect))
- d (soybean) effect on crop grade (soybean [5]): 0 (weed kill ratio 5% or less (practically no effect))
- O (catchweed) weedkilling efficacy grade (catchweed [6]): 4 (weed kill ratio 70% or more, less than 90%)
- e (wheat) effect on crop grade (wheat [7]): 0 (weed kill ratio 5% or less (practically no effect))
- A (barnyard grass) weedkilling efficacy grade (barnyard grass [8]): 5 (weed kill ratio 90% or more, (practically complete withering))
- D (crabgrass) weedkilling efficacy grade (crabgrass [9]): 4 (weed kill ratio 70% or more, less than 90%)
- D (crabgrass) weedkilling efficacy grade (crabgrass [10]): 5 (weed kill ratio 90% or more, (practically complete withering))
- f (beet) effect on crop grade (beet [11]): 4 (weed kill ratio 70% or more, less than 90%)
- J (common wind-grass) weedkilling efficacy grade (common wind-grass [12]): 5 (weed kill ratio 90% or more, (practically complete withering))
- L (redroot pigweed) weedkilling efficacy grade (redroot pigweed [13]): 0 (weed kill ratio 5% or less (practically no effect))
- L (redroot pigweed) weedkilling efficacy grade (redroot pigweed [14]): 4 (weed kill ratio 70% or more, less than 90%)
- b (directly sown rice) effect on crop grade (directly sown rice [15]): 3 (weed kill ratio 40% or more, less than 70%)
- F (barnyard grass) weedkilling efficacy grade (barnyard grass [16]): 5 (weed kill ratio 90% or more, (practically complete withering))
- I (Italian ryegrass) weedkilling efficacy grade (Italian ryegrass [17]): 5 (weed kill ratio 90% or more, (practically complete withering))
- g (rapeseed) effect on crop grade (rapeseed [18]): 4 (weed kill ratio 70% or more, less than 90%)
- K (Indian mallow) weedkilling efficacy grade (Indian mallow [19]): 3 (weed kill ratio 40% or more, less than 70%)
- B (bulrush) weedkilling efficacy grade (bulrush [20]): 5 (weed kill ratio 90% or more, (practically complete withering))
- H (black-grass) weedkilling efficacy grade (black-grass [21]): 5 (weed kill ratio 90% or more, (practically complete withering))
- a (transplanted rice) effect on crop grade (transplanted rice): 0 (weed kill ratio 5% or less (practically no effect))
- O (catchweed) weedkilling efficacy grade (catchweed [22]): 4 (weed kill ratio 70% or more, less than 90%)
- f (beet) effect on crop grade (beet [23]): 4 (weed kill ratio 70% or more, less than 90%)
- c (corn) effect on crop grade (corn [24]): 1 (weed kill ratio 5% or more, less than 20%)
- G (wild oat) weedkilling efficacy grade (wild oat [25]): 3 (weed kill ratio 40% or more, less than 70%)
- c (corn) effect on crop grade (corn [26]): 1 (weed kill ratio 5% or more, less than 20%)
- F (barnyard grass) weedkilling efficacy grade (barnyard grass [27]): 4 (weed kill ratio 70% or more, less than 90%)
- N (chickweed) weedkilling efficacy grade (chickweed [28]): 2 (weed kill ratio 20% or more, less than 40%)
- C (oval-leafed pondweed) weedkilling efficacy grade (oval-leafed pondweed [29]): 5 (weed kill ratio 90% or more, (practically complete withering))
- G (wild oat) weedkilling efficacy grade (wild oat [30]): 3 (weed kill ratio 40% or more, less than 70%)
- P (birds-eye speedwell) weedkilling efficacy grade (birds-eye speedwell [31]): 4 (weed kill ratio 70% or more, less than 90%)
- C (oval-leafed pondweed) weedkilling efficacy grade (oval-leafed pondweed [32]): 5 (weed kill ratio 90% or more, (practically complete withering))
- b (directly sown rice) effect on crop grade (directly sown rice [33]): 4 (weed kill ratio 70% or more, less than 90%)
- E (green foxtail) weedkilling efficacy grade (green foxtail [34]): 5 (weed kill ratio 90% or more, (practically complete withering))
- I (Italian ryegrass) weedkilling efficacy grade (Italian ryegrass [35]): 4 (weed kill ratio 70% or more, less than 90%)
- B (bulrush) weedkilling efficacy grade (bulrush [36]): 5 (weed kill ratio 90% or more, (practically complete withering))
- P (birds-eye speedwell) weedkilling efficacy grade (birds-eye speedwell [37]): 5 (weed kill ratio 90% or more, (practically complete withering))
- M (fig-leafed goosefoot) weedkilling efficacy grade (fig-leafed goosefoot): 4 (weed kill ratio 70% or more, less than 90%)
- e (wheat) effect on crop grade (wheat [38]): 0 (weed kill ratio 5% or less (practically no effect))
- J (common wind-grass) weedkilling efficacy grade (common wind-grass [39]): 5 (weed kill ratio 90% or more, (practically complete withering))
- E (green foxtail) weedkilling efficacy grade (green foxtail [40]): 5 (weed kill ratio 90% or more, (practically complete withering))
- A (barnyard grass) weedkilling efficacy grade (barnyard grass [41]): 5 (weed kill ratio 90% or more, (practically complete withering))
- H (black-grass) weedkilling efficacy grade (black-grass [42]): 4 (weed kill ratio 70% or more, less than 90%)
